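These data come from cells grown in 96-well plates and exposed to compound for 48 hours at five concentrations. The concentration for 50% growth inhibition is given as GI50. Definition used: TGI = concentration required for complete inhibition of growth.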
What was measured:
Experiment in all cases: growth of human tumour cells (NCI), 48 h
[1] = test system: ACHN renal
[2] = test system: CAKI-1 renal
[3] = test system: NCI/ADR-RES ovarian
[4] = test system: OVCAR-3 ovarian
[5] = test system: OVCAR-5 ovarian
[6] = test system: SF-268 CNS
[7] = test system: SK-MEL-28 melanoma
[8] = test system: SR leukemia
[9] = test system: T-47D breast
[10] = test system: UACC-257 melanoma

Compound | GI50 [1] | TGI [1] | GI50 [2] | TGI [2] | GI50 [3] | TGI [3] | GI50 [4] | TGI [4] | GI50 [5] | TGI [5] | GI50 [6] | TGI [6] | GI50 [7] | TGI [7] | GI50 [8] | TGI [8] | GI50 [9] | TGI [9] | GI50 [10] | TGI [10]
c1ccc(Cn2cc3c(c2)-c2oncc2CC3)cc1 | 7.74 µM | > 100 µM | 1.97 µM | > 76.3 µM | 0.554 µM | 7.22 µM | 0.457 µM | 2.21 µM | 2.3 µM | > 92.4 µM | 1.78 µM | 38.9 µM | 4.27 µM | > 100 µM | 0.31 µM | 4.34 µM | 2.25 µM | > 100 µM | 22.7 µM | 98.5 µM
O=C(Cc1ccccc1)Nc1nnc(CCSCCc2nnc(NC(=O)Cc3ccccc3)s2)s1 | > 100 µM | > 100 µM | 11.7 µM | 66 µM | > 100 µM | > 100 µM | 6.16 µM | 49.2 µM | > 100 µM | > 100 µM | 12.3 µM | 62 µM | 13.2 µM | > 100 µM | 13.9 µM | 32.6 µM | 8.13 µM | > 100 µM | > 100 µM | > 100 µM
Cc1sc2nc(-c3ccccn3)c(/C=N/N=C(N)N)n2c1C | 7.29 µM | 14.8 µM | 9.11 µM | 18.3 µM | > 21.9 µM | > 40 µM | 8.03 µM | 15.6 µM | 7.67 µM | 16.2 µM | 8.15 µM | 29.8 µM | 4 µM | 9.13 µM | > 100 µM | > 100 µM | 3.93 µM | 10.2 µM | 10.7 µM | 27 µM
Nc1c(C(=O)Nc2cccc3ccccc23)sc2nc3c(cc12)CCCC3 | 4.37 µM | > 100 µM | 5.9 µM | > 100 µM | 0.833 µM | > 100 µM | 0.577 µM | > 100 µM | > 100 µM | > 100 µM | 3.74 µM | > 100 µM | 19.2 µM | > 100 µM | 0.267 µM | 6.38 µM | 0.44 µM | 90.5 µM | 40.5 µM | > 100 µM
Cn1c2ccccc2c2cc(-c3ccccc3)c3c(c21)C(=O)C=CC3=O | – | 41.3 µM | – | 39.3 µM | – | > 100 µM | – | 31.7 µM | – | 35.2 µM | – | 77.4 µM | – | 40.2 µM | – | 17.5 µM | – | 49.9 µM | – | 50.9 µM
O=S(=O)(NC(=S)Nc1ccccc1)c1ccc(N2N=C3c4ccccc4CC3C2c2ccc(Cl)cc2)cc1 (centres undefined) | 25.8 µM | 60.7 µM | 26.1 µM | 91.4 µM | – | – | 46.3 µM | > 100 µM | – | – | 20.7 µM | 51.1 µM | 29.4 µM | 77 µM | 14.7 µM | 36.6 µM | 36.3 µM | > 100 µM | 29.5 µM | 70.5 µM
O=C1C=C(N2CC2)c2ccccc2C1=O | 1.58 µM | 2.96 µM | – | – | 1.94 µM | 5.83 µM | 1.77 µM | 3.27 µM | 2.03 µM | 3.68 µM | 1.79 µM | 3.71 µM | 1.77 µM | 3.17 µM | 1.21 µM | 4.78 µM | 1.88 µM | 4.17 µM | 1.69 µM | 3.1 µM
